Publication PMC8343220, “The selectivity of α‐adrenoceptor agonists for the human α1A, α1B, and α1D‐adrenoceptors” (Pharmacology Research & Perspectives, 2021)
Read-outs that look alike come from different tables or passages of the source.

How the values were obtained:
human α1A‐adrenoceptor [1] = target: T1, human α1A‐adrenoceptor (Homo sapiens, UniProt P35348); conditions: CHO‐α1A cells; given as log KD (negative); ligands marked ^a; ref Proudman et al., 2020; cited from earlier work
T1 construct: expressed in transfected cells; host or cells: CHO-K1
T1 sequence (P35348 1-466): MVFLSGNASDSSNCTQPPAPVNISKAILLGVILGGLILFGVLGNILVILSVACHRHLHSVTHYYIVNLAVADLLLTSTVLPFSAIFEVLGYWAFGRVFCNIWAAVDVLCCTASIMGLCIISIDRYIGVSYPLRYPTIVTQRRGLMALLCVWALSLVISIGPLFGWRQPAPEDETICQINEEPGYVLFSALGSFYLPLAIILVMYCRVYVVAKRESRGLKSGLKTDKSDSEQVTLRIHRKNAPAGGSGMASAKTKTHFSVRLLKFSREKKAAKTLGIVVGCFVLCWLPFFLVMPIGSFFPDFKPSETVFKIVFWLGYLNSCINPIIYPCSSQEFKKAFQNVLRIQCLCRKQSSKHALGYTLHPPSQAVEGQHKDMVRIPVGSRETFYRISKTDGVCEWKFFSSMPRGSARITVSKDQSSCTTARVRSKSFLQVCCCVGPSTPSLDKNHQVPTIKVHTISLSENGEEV

human α1B‐adrenoceptor [2] = target: T2, human α1B‐adrenoceptor (Homo sapiens, UniProt P35368); conditions: CHO‐α1B cells; given as log KD (negative); ligands marked ^a; ref Proudman et al., 2020; cited from earlier work
T2 construct: expressed in transfected cells; host or cells: CHO-K1
T2 sequence (P35368 1-520): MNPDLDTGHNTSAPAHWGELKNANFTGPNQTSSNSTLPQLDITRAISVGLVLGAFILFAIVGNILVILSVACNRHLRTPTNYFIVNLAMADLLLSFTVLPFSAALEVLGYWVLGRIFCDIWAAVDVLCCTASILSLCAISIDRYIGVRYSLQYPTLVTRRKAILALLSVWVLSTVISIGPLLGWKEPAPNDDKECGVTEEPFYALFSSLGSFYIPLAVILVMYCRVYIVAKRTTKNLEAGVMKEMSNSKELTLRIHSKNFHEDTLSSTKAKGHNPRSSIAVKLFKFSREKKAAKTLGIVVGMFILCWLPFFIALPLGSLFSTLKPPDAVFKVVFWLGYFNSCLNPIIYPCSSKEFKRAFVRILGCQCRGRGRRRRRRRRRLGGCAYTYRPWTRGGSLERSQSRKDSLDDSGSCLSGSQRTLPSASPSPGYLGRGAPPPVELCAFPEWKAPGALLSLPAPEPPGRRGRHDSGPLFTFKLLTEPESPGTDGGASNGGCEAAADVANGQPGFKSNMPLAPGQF

[3] = system: parental CHO cell line without any transfected receptors; assay: Intracellular calcium mobilization, parent CHO cells without transfected receptors; type: cell-based, Chinese hamster
human α1A‐adrenoceptor [4] = target: T1, human α1A‐adrenoceptor; assay: Intracellular free calcium mobilization, CHO‐α1A cells; type: cell-based
human α1A‐adrenoceptor [5] = target: T1, human α1A‐adrenoceptor; assay: ^3H‐prazosin whole‐cell radioligand binding, CHO‐α1A cells
human α1B‐adrenoceptor [6] = target: T2, human α1B‐adrenoceptor; assay: Intracellular free calcium mobilization, CHO‐α1B cells; type: cell-based
[7] = system: parental CHO cell line without any transfected receptors; assay: ERK1/2‐phosphorylation, parent CHO cells without transfected receptors; type: cell-based, Chinese hamster
[8] = target: T3, human α1D‐adrenoceptor (full length) (Homo sapiens, UniProt P25100); conditions: CHO‐α1D cells; ligands marked ^a; ref Proudman et al., 2020; cited from earlier work
T3 construct: human α1D‐adrenoceptor (full length) were used; expressed in transfected cells; host or cells: CHO-K1
T3 sequence (P25100 1-572): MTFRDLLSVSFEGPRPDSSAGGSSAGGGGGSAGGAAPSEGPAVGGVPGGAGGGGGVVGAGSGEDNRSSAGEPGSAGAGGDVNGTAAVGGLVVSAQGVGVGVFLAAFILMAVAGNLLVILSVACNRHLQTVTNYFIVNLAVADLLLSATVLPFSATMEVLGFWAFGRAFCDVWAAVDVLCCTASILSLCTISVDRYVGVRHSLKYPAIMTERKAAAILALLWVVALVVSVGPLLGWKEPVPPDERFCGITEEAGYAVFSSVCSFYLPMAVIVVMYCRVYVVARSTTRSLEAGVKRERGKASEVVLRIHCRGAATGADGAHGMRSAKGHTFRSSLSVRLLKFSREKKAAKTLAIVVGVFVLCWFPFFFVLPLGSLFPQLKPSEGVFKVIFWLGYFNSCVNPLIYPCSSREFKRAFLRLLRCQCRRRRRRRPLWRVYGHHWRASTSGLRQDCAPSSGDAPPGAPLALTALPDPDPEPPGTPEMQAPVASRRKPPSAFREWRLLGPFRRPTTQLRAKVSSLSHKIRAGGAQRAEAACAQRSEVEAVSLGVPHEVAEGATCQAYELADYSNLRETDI

human α1B‐adrenoceptor [9] = target: T2, human α1B‐adrenoceptor; assay: ERK1/2‐phosphorylation (Surefire Alphascreen), CHO‐α1B cells; type: cell-based
[10] = target: T3, human α1D‐adrenoceptor (full length); assay: ERK1/2‐phosphorylation (Surefire Alphascreen), CHO‐α1D cells; type: cell-based
[11] = target: T3, human α1D‐adrenoceptor (full length); assay: ^3H‐prazosin whole‐cell radioligand binding, CHO‐α1D cells
[12] = target: T3, human α1D‐adrenoceptor (full length); assay: Intracellular free calcium mobilization, CHO‐α1D cells; type: cell-based
human α1A‐adrenoceptor [13] = target: T1, human α1A‐adrenoceptor; assay: ERK1/2‐phosphorylation (Surefire Alphascreen), CHO‐α1A cells; type: cell-based
human α1A‐adrenoceptor [14] = target: T1, human α1A‐adrenoceptor; assay: ^3H‐cAMP accumulation in the presence of 10 μM forskolin, CHO‐α1A cells; type: cell-based; conditions: CHO‐α1A cells; for cAMP accumulation (in presence of forskolin) Log EC50: 10 μM forskolin; for cAMP accumulation (in presence of forskolin) Fold increase: fold increase of the forskolin response
[15] = system: parental CHO cell line without any transfected receptors; assay: Forskolin‐stimulated cAMP accumulation, parent CHO cells without transfected receptors; type: cell-based, Chinese hamster
human α1A‐adrenoceptor [16] = target: T1, human α1A‐adrenoceptor; assay: ^3H‐cAMP accumulation, CHO‐α1A cells; type: cell-based; conditions: CHO‐α1A cells; for cAMP accumulation Log EC50: 5 h; for cAMP accumulation % forskolin: % of 10 µM forskolin response
[17] = system: parental CHO cell line without any transfected receptors; assay: ^3H‐cAMP accumulation, parent CHO cells without transfected receptors; type: cell-based, Chinese hamster
[18] = CHO‐α1D cells, response at 100 µM ligand (no EC50 given)

| SMILES | Log KD α1A, ^3H‐prazosin whole cell binding (human α1A‐adrenoceptor [1]) | Log KD α1B, ^3H‐prazosin whole cell binding (human α1B‐adrenoceptor [2]) | Intracellular calcium release % ionomycin [3] | Intracellular calcium release % ionomycin (human α1A‐adrenoceptor [4]) [%] | Intracellular calcium release Log EC50 (human α1A‐adrenoceptor [4]) | Log efficacy ratio KD /EC50 (human α1A‐adrenoceptor [4]) | Affinity selectivity ratio α1A vs α1B (human α1A‐adrenoceptor [5]) [fold] | Affinity selectivity ratio α1A vs α1D (human α1A‐adrenoceptor [5]) [fold] | Log KD α1D, ^3H‐prazosin whole cell binding (single site or first, higher affinity component) [8] | ERK1/2‐phosphorylation % PDBu at 100 µM [10] [%] | 3H‐prazosin binding Log KD [11] | Affinity selectivity ratio α1B vs α1D [11] [fold] | Intracellular calcium release % Ionomycin at 100 µM [12] [%] | ERK1/2‐phosphorylation % PDBu (human α1A‐adrenoceptor [13]) [%] | ERK1/2‐phosphorylation Log EC50 (human α1A‐adrenoceptor [13]) | cAMP accumulation (in presence of forskolin) Log EC50 (human α1A‐adrenoceptor [14]) | cAMP accumulation (in presence of forskolin) Fold increase (human α1A‐adrenoceptor [14]) [fold] | cAMP accumulation Log EC50 (human α1A‐adrenoceptor [16]) | cAMP accumulation % forskolin (human α1A‐adrenoceptor [16]) [%] | further results |
| --- | --- | --- | --- | --- | --- | --- | --- | --- | --- | --- | --- | --- | --- | --- | --- | --- | --- | --- | --- | --- |
| O=C1CCC(=O)N1C[C@H]1CC[C@H]2CN(c3ncccn3)CCN2C1 [Sunepitrion] | −5.78 ± 0.06 | −4.65 ± 0.06 | No response | 30.1 ± 3.0 | −6.17 ± 0.14 | 0.39 | 13.5 | 2.8 | −5.33 ± 0.23 | 2.4 ± 1.1 | −5.33 | 4.8 | 2.5 ± 0.5 | 39.7 ± 8.4 | −5.96 ± 0.12 | – | – | – | – | Intracellular calcium release % Ionomycin at 100 µM (human α1B‐adrenoceptor [6]): 8.2 ± 1.3%; ERK1/2-phosphorylation % PDBu at 100μM [7]: 4.1 ± 2.7%; ERK1/2‐phosphorylation % PDBu (human α1B‐adrenoceptor [9]): 7.8 ± 2.8% |
| CCC1(C2=NCCN2)Cc2ccccc2O1 (stereo not drawn) [Eforaxan] | −5.47 ± 0.03 | −4.27 ± 0.07 | No response | 45.0 ± 2.6 | −6.83 ± 0.10 | 1.36 | 15.8 | 3.2 | −4.97 ± 0.06 | 2.7 ± 1.5 | −4.97 | 5.0 | 2.8 ± 0.8 | 76.4 ± 5.2 | −6.12 ± 0.07 | −5.93 ± 0.13 | 1.47 ± 0.13 | −5.47 ± 0.10 | 4.0 ± 0.6 | cAMP accumulation (in presence of forskolin) % forskolin-stim cAMP [15]: No response; cAMP accumulation (in presence of forskolin) Log EC50 [15]: No response; Intracellular calcium release % ionomycin (human α1B‐adrenoceptor [6]): No response; Intracellular calcium release Log EC50 (human α1B‐adrenoceptor [6]): No response; ERK1/2-phosphorylation % PDBu [7]: No response; ERK1/2-phosphorylation Log EC50 [7]: No response; ERK1/2‐phosphorylation % PDBu at 100 µM (human α1B‐adrenoceptor [9]): 11.9 ± 2.4%; cAMP accumulation % forskolin [17]: No response |
| CC1c2ccccc2CN1CC1=NCCN1 (stereo not drawn) [BRL44408] | −5.92 ± 0.09 | −4.68 ± 0.07 | – | – | – | – | – | – | −5.06 ± 0.05 | – | – | – | – | – | – | −6.43 ± 0.09 | 1.62 ± 0.08 | −6.27 ± 0.17 | 4.7 ± 0.5 | Log efficacy ratio KD /EC50 (human α1A‐adrenoceptor [4]; CHO‐α1A cells, binding KD and calcium EC50): 1.32; Intracellular calcium release Log EC50 (human α1A‐adrenoceptor [4]; CHO‐α1A cells, given as log EC50 (negative)): −7.24 ± 0.10; Intracellular calcium release % ionomycin (human α1A‐adrenoceptor [4]; CHO‐α1A cells, maximal response as % of 10 µM ionomycin): 36.5 ± 5.4%; cAMP accumulation (in presence of forskolin) % forskolin-stim cAMP at 100μM ([15]; CHO cells without transfected receptors, response at 100μM only, EC50 not obtainable, % of forskolin-stimulated cAMP): 77.6 ± 2.3%; Affinity selectivity ratio α1A vs α1B (human α1A‐adrenoceptor [5]; higher affinity for α1A than α1B): 17.4 fold; Intracellular calcium release % Ionomycin at 100 µM (human α1B‐adrenoceptor [6]; CHO‐α1B cells, response at 100 µM ligand (no EC50 given), % of ionomycin response): 13.7 ± 6.5%; ERK1/2-phosphorylation % PDBu at 100μM ([7]; CHO cells without transfected receptors, response at 100μM only, EC50 not obtainable, % of PDBu (10μM)): 17.6 ± 8.1%; ERK1/2‐phosphorylation % PDBu at 100 µM (human α1B‐adrenoceptor [9]; CHO‐α1B cells, response at 100 µM ligand (no EC50 given)): 47.0 ± 7.0%; ERK1/2‐phosphorylation % PDBu at 100 µM [10, 18]: 47.4 ± 5.7%; 3H‐prazosin binding Log KD ([11]; CHO‐α1D cells, whole‐cell binding (from Table 1), log values given negative): −5.06; Affinity selectivity ratio α1B vs α1D ([11]; higher affinity for α1D than α1B): 2.4 fold; Intracellular calcium release % Ionomycin at 100 µM [12, 18]: 4.5 ± 2.1%; ERK1/2‐phosphorylation Log EC50 (human α1A‐adrenoceptor [13]; CHO‐α1A cells, 2–4 min, ^a bi‐phasic: initial stimulatory part, ^b also active in parent CHO cells): −7.03 ± 0.14; ERK1/2‐phosphorylation % PDBu (human α1A‐adrenoceptor [13]; CHO‐α1A cells, % of 10 µM PDBu, ^a bi‐phasic: initial stimulatory part): 77.4 ± 4.1% |
